From PubChem BioAssay (NCI)
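These data come from cells grown in 96-well plates and exposed to compound for 48 hours at five concentrations. TGI: total growth inhibition.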

Tests used:
Assay in all cases: NCI anticancer screen, dose series, 48 h
UACC-257 melanoma = test system: UACC-257 melanoma
PC-3 prostate = test system: PC-3 prostate
MDA-MB-231 breast = test system: MDA-MB-231 breast
HS 578T breast = test system: HS 578T breast
OVCAR-3 ovarian = test system: OVCAR-3 ovarian
TK-10 renal = test system: TK-10 renal
SK-MEL-28 melanoma = test system: SK-MEL-28 melanoma
K-562 leukemia = test system: K-562 leukemia
CCRF-CEM leukemia = test system: CCRF-CEM leukemia
NCI-H23 lung = test system: NCI-H23 lung

## CN(C)c1ccc(-c2c(C#N)c(N)[nH]c(=S)c2C#N)cc1
UACC-257 melanoma
  TGI: > 100 µM
PC-3 prostate
  TGI: > 100 µM
MDA-MB-231 breast
  TGI: > 100 µM
HS 578T breast
  TGI: 35.7 µM
OVCAR-3 ovarian
  TGI: > 100 µM
TK-10 renal
  TGI: > 100 µM
SK-MEL-28 melanoma
  TGI: > 100 µM
K-562 leukemia
  TGI: > 100 µM
CCRF-CEM leukemia
  TGI: > 100 µM
NCI-H23 lung
  TGI: > 100 µM

## O=C1CC(=O)NC(=NN2C(=O)CSC2c2ccc(Cl)c(Cl)c2)N1 (stereo unspecified)
UACC-257 melanoma
  TGI: > 100 µM
PC-3 prostate
  TGI: > 100 µM
MDA-MB-231 breast
  TGI: > 100 µM
HS 578T breast
  TGI: > 100 µM
OVCAR-3 ovarian
  TGI: > 100 µM
TK-10 renal
  TGI: > 100 µM
SK-MEL-28 melanoma
  TGI: > 100 µM
K-562 leukemia
  TGI: > 100 µM
CCRF-CEM leukemia
  TGI: 49.3 µM
NCI-H23 lung
  TGI: > 100 µM

## CCOC(=O)CCC(NC(=O)Cc1ccc(Nc2nc3ccccc3nc2-c2ccccc2)cc1)C(=O)OCC (stereo unspecified)
UACC-257 melanoma
  TGI: > 100 µM
PC-3 prostate
  TGI: > 100 µM
MDA-MB-231 breast
  TGI: 53.3 µM
HS 578T breast
  TGI: 74.6 µM
TK-10 renal
  TGI: 58.5 µM
SK-MEL-28 melanoma
  TGI: > 100 µM
K-562 leukemia
  TGI: > 100 µM
CCRF-CEM leukemia
  TGI: > 100 µM
NCI-H23 lung
  TGI: > 100 µM

## CC1=C/C(=N\OCC(=O)O)CC(c2ccc(C(C)C)cc2)C1 (stereo unspecified)
UACC-257 melanoma
  TGI: > 100 µM
PC-3 prostate
  TGI: > 100 µM
MDA-MB-231 breast
  TGI: > 100 µM
HS 578T breast
  TGI: > 100 µM
K-562 leukemia
  TGI: > 100 µM
CCRF-CEM leukemia
  TGI: > 100 µM

## O=C1CSC2(CC(/C=C/c3ccccc3O)=NN2c2cccc(S(=O)(=O)O)c2)N1c1nc2ccccc2s1 (stereo unspecified)
UACC-257 melanoma
  TGI: > 100 µM
PC-3 prostate
  TGI: > 100 µM
MDA-MB-231 breast
  TGI: > 100 µM
HS 578T breast
  TGI: > 100 µM
TK-10 renal
  TGI: 58.5 µM
SK-MEL-28 melanoma
  TGI: > 100 µM
K-562 leukemia
  TGI: > 100 µM
CCRF-CEM leukemia
  TGI: 51.7 µM
NCI-H23 lung
  TGI: > 100 µM

## CC1=NC(=O)C(C)(c2ccccc2)N1CCc1ccccc1 (stereo unspecified)
UACC-257 melanoma
  TGI: > 100 µM
PC-3 prostate
  TGI: > 100 µM
MDA-MB-231 breast
  TGI: > 100 µM
HS 578T breast
  TGI: > 100 µM
OVCAR-3 ovarian
  TGI: > 100 µM
TK-10 renal
  TGI: > 100 µM
K-562 leukemia
  TGI: > 100 µM
CCRF-CEM leukemia
  TGI: > 100 µM
NCI-H23 lung
  TGI: > 100 µM

## CCOC(=O)c1cc(Sc2ccc(N)c(C(=O)OCC)c2)ccc1N
UACC-257 melanoma
  TGI: > 100 µM
PC-3 prostate
  TGI: > 100 µM
MDA-MB-231 breast
  TGI: > 100 µM
HS 578T breast
  TGI: > 100 µM
OVCAR-3 ovarian
  TGI: > 100 µM
SK-MEL-28 melanoma
  TGI: > 100 µM
K-562 leukemia
  TGI: > 100 µM
CCRF-CEM leukemia
  TGI: > 100 µM
NCI-H23 lung
  TGI: > 100 µM

## CSC1=N[C@H](c2ccccc2)CS1
UACC-257 melanoma
  TGI: > 100 µM
PC-3 prostate
  TGI: > 100 µM
HS 578T breast
  TGI: > 100 µM
OVCAR-3 ovarian
  TGI: > 100 µM
TK-10 renal
  TGI: > 100 µM
SK-MEL-28 melanoma
  TGI: > 100 µM
K-562 leukemia
  TGI: > 100 µM
CCRF-CEM leukemia
  TGI: > 100 µM
NCI-H23 lung
  TGI: > 100 µM

## CN(C)c1ccc(/C=C/C=C\C2=CC(=C\C=C/C=C3C=CC(=[N+](C)C)C=C3)/Sc3ccccc32)cc1
UACC-257 melanoma
  TGI: > 100 µM
OVCAR-3 ovarian
  TGI: > 100 µM
TK-10 renal
  TGI: > 100 µM
SK-MEL-28 melanoma
  TGI: 28.9 µM
K-562 leukemia
  TGI: > 100 µM

## COc1cc(/C=C/C(=O)c2sc(-n3nc(-c4ccccc4)cc3-c3ccccc3)nc2C)ccc1O
UACC-257 melanoma
  TGI: > 100 µM
OVCAR-3 ovarian
  TGI: > 100 µM
TK-10 renal
  TGI: > 100 µM
SK-MEL-28 melanoma
  TGI: > 100 µM
K-562 leukemia
  TGI: > 100 µM
CCRF-CEM leukemia
  TGI: > 100 µM
NCI-H23 lung
  TGI: > 100 µM

## NCCCCNCCCN1CC1
UACC-257 melanoma
  TGI: > 100 µM
PC-3 prostate
  TGI: > 100 µM
HS 578T breast
  TGI: 2.14 µM
OVCAR-3 ovarian
  TGI: 8.98 µM
TK-10 renal
  TGI: > 100 µM
SK-MEL-28 melanoma
  TGI: > 26 µM
K-562 leukemia
  TGI: > 26.4 µM
NCI-H23 lung
  TGI: 16.2 µM

## CC(=O)/C(=C\c1ccco1)C(=O)Nc1ccccc1
UACC-257 melanoma
  TGI: > 100 µM
OVCAR-3 ovarian
  TGI: > 100 µM
TK-10 renal
  TGI: > 100 µM
SK-MEL-28 melanoma
  TGI: > 100 µM
K-562 leukemia
  TGI: > 100 µM
CCRF-CEM leukemia
  TGI: > 100 µM
NCI-H23 lung
  TGI: > 100 µM

## COc1cc2c(cc1OC)-c1[nH]c3ccc(C#N)cc3c1CC(=O)N2
UACC-257 melanoma
  TGI: > 100 µM
PC-3 prostate
  TGI: > 100 µM
MDA-MB-231 breast
  TGI: > 100 µM
HS 578T breast
  TGI: > 100 µM
TK-10 renal
  TGI: > 100 µM
SK-MEL-28 melanoma
  TGI: > 100 µM
CCRF-CEM leukemia
  TGI: > 100 µM
NCI-H23 lung
  TGI: > 100 µM

## Nc1ccn(C2CC(O)C(COP(O)(=S)OC3CC(n4ccc(N)nc4=O)OC3CO)O2)c(=O)n1 (stereo unspecified)
UACC-257 melanoma
  TGI: > 100 µM
PC-3 prostate
  TGI: > 100 µM
MDA-MB-231 breast
  TGI: > 100 µM
HS 578T breast
  TGI: > 100 µM
OVCAR-3 ovarian
  TGI: > 100 µM
TK-10 renal
  TGI: > 100 µM
SK-MEL-28 melanoma
  TGI: > 100 µM
CCRF-CEM leukemia
  TGI: > 100 µM
NCI-H23 lung
  TGI: > 100 µM

## C/C(CN1C(=O)c2ccccc2C1=O)=N\NS(=O)(=O)c1ccc(Br)cc1
UACC-257 melanoma
  TGI: > 100 µM
OVCAR-3 ovarian
  TGI: > 100 µM
TK-10 renal
  TGI: > 100 µM
SK-MEL-28 melanoma
  TGI: > 100 µM
K-562 leukemia
  TGI: > 100 µM
CCRF-CEM leukemia
  TGI: > 100 µM
NCI-H23 lung
  TGI: > 100 µM

## COC(=O)N1C[C@@]2(C=CC3(CC2)OCCO3)c2ccccc21
UACC-257 melanoma
  TGI: > 100 µM
PC-3 prostate
  TGI: > 100 µM
MDA-MB-231 breast
  TGI: > 100 µM
OVCAR-3 ovarian
  TGI: > 100 µM
TK-10 renal
  TGI: > 100 µM
SK-MEL-28 melanoma
  TGI: > 100 µM
K-562 leukemia
  TGI: > 100 µM
CCRF-CEM leukemia
  TGI: > 100 µM
NCI-H23 lung
  TGI: > 100 µM

## COc1cc(S(=O)(=O)Nc2ccc(-c3csc(N4C(=O)CSC4c4cccs4)n3)cc2)ccc1Cl (stereo unspecified)
UACC-257 melanoma
  TGI: 46 µM
PC-3 prostate
  TGI: > 100 µM
HS 578T breast
  TGI: 78.3 µM
OVCAR-3 ovarian
  TGI: > 100 µM
SK-MEL-28 melanoma
  TGI: 39.5 µM
K-562 leukemia
  TGI: 95.6 µM
CCRF-CEM leukemia
  TGI: 95.1 µM
NCI-H23 lung
  TGI: > 100 µM

## O=C(O)c1c[nH]c2c(Sc3ccccc3)nccc2c1=O
UACC-257 melanoma
  TGI: > 100 µM
PC-3 prostate
  TGI: > 100 µM
MDA-MB-231 breast
  TGI: > 100 µM
HS 578T breast
  TGI: > 100 µM
OVCAR-3 ovarian
  TGI: > 100 µM
TK-10 renal
  TGI: > 100 µM
SK-MEL-28 melanoma
  TGI: > 100 µM
CCRF-CEM leukemia
  TGI: > 100 µM
NCI-H23 lung
  TGI: > 100 µM

## CCOC(=O)CSc1ccnc(=O)[nH]1
UACC-257 melanoma
  TGI: > 100 µM
OVCAR-3 ovarian
  TGI: > 100 µM
TK-10 renal
  TGI: > 100 µM
K-562 leukemia
  TGI: > 100 µM
CCRF-CEM leukemia
  TGI: > 100 µM

## NC(=S)NNC(=O)/C(=C/c1ccc(/C=C(\NC(=O)c2ccccc2)C(=O)NNC(N)=S)cc1)NC(=O)c1ccccc1
UACC-257 melanoma
  TGI: > 100 µM
OVCAR-3 ovarian
  TGI: > 100 µM
TK-10 renal
  TGI: > 100 µM
SK-MEL-28 melanoma
  TGI: > 100 µM
K-562 leukemia
  TGI: > 31.6 µM
CCRF-CEM leukemia
  TGI: > 100 µM
NCI-H23 lung
  TGI: > 100 µM

## O=C(NO)c1ccc([N+](=O)[O-])cc1
UACC-257 melanoma
  TGI: > 100 µM
OVCAR-3 ovarian
  TGI: > 100 µM
TK-10 renal
  TGI: > 100 µM
SK-MEL-28 melanoma
  TGI: > 100 µM
K-562 leukemia
  TGI: > 100 µM
CCRF-CEM leukemia
  TGI: > 100 µM
NCI-H23 lung
  TGI: > 100 µM

## CCCCCCn1c(SCC)c2ccccc2c1-c1nc(F)nc(F)n1
UACC-257 melanoma
  TGI: > 100 µM
OVCAR-3 ovarian
  TGI: > 100 µM
TK-10 renal
  TGI: > 100 µM
SK-MEL-28 melanoma
  TGI: > 100 µM
K-562 leukemia
  TGI: > 100 µM
CCRF-CEM leukemia
  TGI: > 100 µM
NCI-H23 lung
  TGI: > 100 µM

## O=P(O)(OCC(O)O)OCC(O)O
UACC-257 melanoma
  TGI: > 100 µM
OVCAR-3 ovarian
  TGI: > 100 µM
TK-10 renal
  TGI: > 100 µM
SK-MEL-28 melanoma
  TGI: > 100 µM
K-562 leukemia
  TGI: > 100 µM
CCRF-CEM leukemia
  TGI: > 100 µM
NCI-H23 lung
  TGI: > 100 µM
